Like-named read-outs stand apart in the source and are kept apart here.
What was measured:
[1] = tested on: human or porcine epithelial cells

Row | SMILES | Apical fraction (Caco-2 cells) [%] | Basal fraction (Caco-2 cells) [%] | Intracellular fraction (Caco-2 cells) [%] | Apical fraction (T84 cells) [%] | Basal fraction (T84 cells) [%] | Intracellular fraction (T84 cells) [%] | Apical fraction (IPEC-J2 cells) [%] | Basal fraction (IPEC-J2 cells) [%] | Intracellular fraction (IPEC-J2 cells) [%] | intracellular accumulation [1] | Apical fraction (Caco-2 cells; human) [%] | Basal fraction (Caco-2 cells; human) [%] | Intracellular fraction (Caco-2 cells; human) [%] | Apical fraction (T84 cells; human) [%] | Basal fraction (T84 cells; human) [%] | Intracellular fraction (T84 cells; human) [%] | Apical fraction (IPEC-J2 cells; pig) [%] | Basal fraction (IPEC-J2 cells; pig) [%] | Intracellular fraction (IPEC-J2 cells; pig) [%]
1 | CO/C1=C\C(C)=C\[C@@H](C)[C@@H](O)[C@@H](C)C/C(C)=C/C=C/[C@H](OC)[C@@H]([C@@H](C)[C@@H](O)[C@H](C)[C@@]2(O)C[C@@H](O)[C@H](C)[C@@H](C(C)C)O2)OC1=O [Bafilomycin A1] | 0.1 | 22.5 | 77.4 | 2.5 | 30.5 | 68.0 | 0.1 | 28.1 | 71.8 | 19.5-77.4 % of the initial dose | – | – | – | – | – | – | – | – | –
2 | Cc1ncc([N+](=O)[O-])n1CCO [Metronidazole] | – | – | – | – | – | – | – | – | – | – | 80.2 | 12.9 | 12.7 | 71.3 | 9.7 | 19.0 | 84.0 | 7.1 | 8.9
